The source of these data is paper PMC12081876, “Identification of PTGR2 inhibitors as a new therapeutic strategy for diabetes and obesity” (EMBO Molecular Medicine, 2025).

Series [1] has as its system HFHSD-fed obese C57BL6/J mice. As to the kind of experiment: Hepatic steatosis (H&E) and hepatic triglycerides content. As to conditions: 100 mg/kg/day oral, vs vehicle. The class given is in vivo, mouse. The method, then: Tissues were fixed in 4% paraformaldehyde and then embedded in paraffin before sectioning and staining. The stained sections were scanned and analyzed using a MIRAX viewer (http://www.zeiss.de/mirax) and Image J software (http://rsbwed.nih.gov/ij/).
Approximately 80 mg of liver tissue was homogenized in 1800 μl of chloroform/methanol (2/1). Then, 360 μl of H2O was added. The homogenates were centrifuged at 2000 rpm for 10 min. The lower 200-μl layer was added with 100 μl of chloroform with 4% Triton X-100 and dried in a chemical hood. The dried pellet was redissolved with 200 μl of H2O and was determined the triglyceride concentrations with Wako TG LabAssay kit (cat. no. 290-63701, Wako).

Series [2] can be described thus: Serum ALT, total bilirubin, BUN and creatinine. Conditions: 100 mg/kg/day, vs vehicle. The class given is in vivo, mouse.
The target of series [3] is T1, mPPARγ LBD H351A mutant (Mus musculus, UniProt P37238, H351A).
T1 construct: mPPARγ LBD H351A mutant
T1 sequence (P37238 238-503 H351A limits assumed): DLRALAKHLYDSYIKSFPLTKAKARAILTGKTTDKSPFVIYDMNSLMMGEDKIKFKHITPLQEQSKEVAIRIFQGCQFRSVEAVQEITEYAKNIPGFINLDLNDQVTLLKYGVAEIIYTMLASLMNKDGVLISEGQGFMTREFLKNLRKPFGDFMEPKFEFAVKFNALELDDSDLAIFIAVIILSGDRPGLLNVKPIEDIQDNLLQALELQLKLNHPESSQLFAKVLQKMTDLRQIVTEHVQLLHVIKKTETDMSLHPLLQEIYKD
As to the kind of experiment: Native mass spectrometry ligand binding, mPPARγ LBD H351A. On the set-up: species or system murine. The method, then:
(§1) Wide-type mPPARγ ligand binding domain (LBD), mPPARγ LBD C313A mutant, and mPPARγ LBD H351A mutant were mixed together in a 1:1:1 molar ratio and then incubated with 15-keto-PEG2 or pioglitazone in a 1:10 molar ratio for 5 min at room temperature, respectively. The protein mixture was buffer-exchanged into 500 mM ammonium acetate buffer pH 7.5 using 7 K Zeba™ Spin Desalting Column (cat. no, 89877, Thermo) and immediately introduced into a modified Q-Exactive mass spectrometer (Thermo). The sets of optimized parameters were applied to analyze the ligand binding, including the higher-energy collisional dissociation (HCD) energy of 20 V; spray voltage, 1.1 kV; capillary temperature, 200 °C; S-lens RF level, 200; and resolution, 12,500 at m/z 400. Spectra were acquired and processed manually using Thermo Xcalibur Qual Browser (version 4.4.16.14). The relative percentage of compound-bound forms was quantified by the UniDec software and the degree of effector coupling was calculated by normalizing the relative percentage of bound forms to the sum of the percentage of unbound and bound forms.

For series [4], the target named is T2, mPPARγ LBD C313A mutant (Mus musculus, UniProt P37238, C313A).
T2 construct: mPPARγ LBD C313A mutant
T2 sequence (P37238 238-503 C313A limits assumed): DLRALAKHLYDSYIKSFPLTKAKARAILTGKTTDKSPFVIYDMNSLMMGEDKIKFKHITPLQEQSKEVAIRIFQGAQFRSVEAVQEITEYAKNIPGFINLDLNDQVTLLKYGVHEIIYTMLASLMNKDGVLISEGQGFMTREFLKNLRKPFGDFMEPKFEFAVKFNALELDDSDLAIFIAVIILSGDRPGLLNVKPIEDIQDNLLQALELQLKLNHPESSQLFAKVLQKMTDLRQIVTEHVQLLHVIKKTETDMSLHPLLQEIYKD
As to the kind of experiment: Native mass spectrometry ligand binding, mPPARγ LBD C313A. On the set-up: species or system murine. The method, then:
as §1

Series [5] addresses T3, murine PPARγ (mPPARγ) (Mus musculus, UniProt P37238).
T3 construct: host or cells: HEK293T
Kind of series: Gal4-PPARγ/UAS-LUC reporter assay in HEK293T cells. The class given is cell-based. On the set-up: key to Gal4-PPARγ/UAS-LUC reporter activity, Fig 1B replicates: luciferase activity normalized to TK reporter signal. The method, then:
Briefly, HEK293T cells were seeded in 24-well plates at 1 × 10^5 cells/well. […] Luciferase activity was measured using Luc-Pair™ Duo-Luciferase HS Assay Kit (cat. no. LF600, Promega) and normalized with the TK reporter signal.
(In a reporter assay the amount or activity of a reporter protein is the signal.)

Series [6] deals with murine PPARγ Ser273 phosphorylation. Kind of series: TNFα-induced PPARγ Ser273 phosphorylation in 3T3-L1 adipocytes. The format is cell-based. As to conditions: cultured murine adipocytes. The method, then: For cell-based assay, 3T3-L1 cells were induced differentiation one day after achieving 100% confluence with 0.5 mM IBMX, 1 µm dexamethasone and 10 μg/mL insulin in DMEM containing 10% FBS for 2 days and maintained differentiation in DMEM supplemented with 10 μg/mL insulin and 10% FBS for 4 days. The medium was changed every 2 days. […] Then TNFα was added to induce PPARγ phosphorylation in a concentration of 50 ng/ml for 15 min. Cells were harvested and lysed in RIPA buffer supplemented with 1X cOmplete™, EDTA-free Protease Inhibitor Cocktail (cat. no. 04693132001, Roche) and 1X PhosSTOP™ (cat. no. 4906845001, Roche).
The protein concentrations of tissue lysates were measured by Bradford reagent (cat. no. BP500-0006, Bio-Rad). The protein samples were mixed with 6X sample buffer (0.3 M Tris-HCl, pH 6.8, 0.6 M DTT, 12% SDS, 0.6% Bromophenel blue and 60% glycerol) and heated at 70 °C for 5 min. 30 μg of each sample were separated by 10% SDS-PAGE gel and were transferred to PVDF membrane. The membrane was blocked by 3% BSA in Tris-buffered saline containing 0.1% Tween-20 for 1 h at room temperature and incubated with primary antibody at 4 °C overnight. […] Protein expression of phospho-PPARγ was analyzed using ImageJ software and normalized against PPARγ and GAPDH.

The structures appear in SMILES notation. “And” between values parts separate entries of the source, which are not always exact repeats. Equal values may be shown once.

T3 sequence (P37238 with tags, fused parts or gaps limits assumed): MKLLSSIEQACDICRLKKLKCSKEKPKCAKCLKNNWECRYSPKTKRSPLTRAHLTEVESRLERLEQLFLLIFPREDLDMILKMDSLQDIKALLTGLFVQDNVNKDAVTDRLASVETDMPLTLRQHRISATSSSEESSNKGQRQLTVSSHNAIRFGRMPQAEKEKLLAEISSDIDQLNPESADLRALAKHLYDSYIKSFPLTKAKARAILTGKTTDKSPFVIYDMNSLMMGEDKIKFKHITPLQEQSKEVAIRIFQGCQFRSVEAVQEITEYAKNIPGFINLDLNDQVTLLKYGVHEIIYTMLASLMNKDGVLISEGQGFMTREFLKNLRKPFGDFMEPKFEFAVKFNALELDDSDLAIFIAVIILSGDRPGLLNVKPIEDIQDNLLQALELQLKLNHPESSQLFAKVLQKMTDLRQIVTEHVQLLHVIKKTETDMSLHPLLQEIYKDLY

Regarding `Cc1[nH]c2nc(C(C)N3CCN(c4ccccc4)CC3)nn2c(=O)c1Cc1ccc(F)cc1` (stereo not shown) [BPRPT0245], in series [1], the “extent of hepatic steatosis” value is reported as “significantly decreased” and the hepatic triglycerides content entry is recorded as “significantly decreased”. Besides, in series [2], the “serum ALT, total bilirubin, BUN and creatinine levels” value was “no differences”.

In the case of `CCCCCC(=O)/C=C/[C@H]1[C@H](O)CC(=O)[C@@H]1C/C=C\CCCC(=O)O` [15-keto-PGE2, 15-keto-prostaglandin E2], the “effect of H351A mutation on binding (native MS)” value in series [3] is given as “only a minor impact on 15-keto-PGE2 binding”. Further, in series [4], the “effect of C313A mutation on binding (native MS)” value is recorded as “almost completely abolished 15-keto-PGE2 binding”. For the same molecule, the “Gal4-PPARγ/UAS-LUC reporter activity, Fig 1B replicates” value in series [5] (15kPGE2 5μM) was 2.161 and 2.101 and 1.961; in series [5] (15kPGE2 10μM), 2.283 and 3.108 and 3.049; in series [5] (15kPGE2 30μM), 5.273 and 6.22 and 5.349. The “transactivation activity of PPARγ (Gal4-PPARγ/UAS-LUC reporter)” value in series [5] (HEK293T cells) was “enhanced the transactivation activity of PPARγ in a dose-dependent manner”. Also, the “phosphorylation of PPARγ Ser273” value in series [6] is “dose-dependently reduced phosphorylation of Ser273”.
